Entries after “also recorded” stand apart in the source; their conditions may differ.
What was measured:
[1] = system: orthotopic human breast carcinoma xenograft (MCF10DCIS); assay: dynamic PET/CT imaging, pharmacokinetics and biodistribution in tumor-bearing mice; format: in vivo, immunedeficient nu/nu mice
Procedure: A single (unilateral) orthotopic breast carcinoma xenograft was established in immunedeficient nu/nu mice by injection of human breast ductal carcinoma in situ cells (MCF10DCIS) in Matrigel into one of the upper mammary fat pad.
Tumor-bearing mice (˜20-25 g) were anesthetized using inhalation of 2% isoflurane in oxygen, and their body temperature maintained at 38° C. by a heating pad with a feedback temperature control. […] Dynamic PET images were acquired in list-mode and reconstructed using OSEM algorithm at multiple time frames post radiotracer administration (0-2, 2-4, 4-6, 6-8, 8-10, 10-20, 20-30, 30-40, 40-50, 50-60 min). Thereafter, while still fixed to the positioning bed, the mice were moved with the bed into the gantry of INVEON SPECT/CT (Siemens), and CT images were acquired over the whole body area for attenuation correction of PET images and for production of PET/CT images. PET/CT fusion images were generated and analyzed in a similar manner as when studying rats.

[2] = dynamic PET/CT imaging, pharmacokinetics and biodistribution in a normal rat; format: in vivo, Sprague-Dawley rats
Procedure: Sprague-Dawley rats (males, ˜250 g) were anesthetized using inhalation of 2% isoflurane in oxygen, and their body temperature maintained at 37° C. by a heating pad with a feedback temperature control. […] Dynamic PET images were acquired in the list-mode and reconstructed using OSEM algorithm at multiple time frames post radiotracer administration (0-2, 2-4, 4-6, 6-8, 8-10, 10-20, 20-30, 30-40, 40-50, 50-60 min), followed by a whole body image that has been acquired using 3 consecutive bed positions, 5 min/bed position. Thereafter, while still fixed to the positioning bed, the rats were moved with the bed into the gantry of the INVEON SPECT/CT (Siemens) and CT images were acquired over the whole body area for attenuation correction of PET images and for production of PET/CT images. PET/CT fusion images were generated and analyzed using the AMIDE software version 1.0.4. […] The data was analyzed using GraphPad Prism version 6 (GraphPad Prism, Inc.) and pharmacokinetic parameters of clearance were calculated by fitting the resultant time-activity curves with exponential or bi-exponential functions.

[3] = tumor-bearing mice, i.v., bi-exponential clearance from the blood
[4] = tumor-bearing mice, mono-exponential kinetics
[5] = rats, i.v., bi-exponential clearance from the blood
[6] = rats, i.v., mono-exponential kinetics

With `OCC1OC(SC2OC(CO)C(O)C(n3cc(-c4cccc([18F])c4)nn3)C2O)C(O)C(n2cc(-c3cccc(F)c3)nn2)C1O` [[^18F]FPTDG, 3-(3-[^18F]fluorophenyltriazolyl)-3-deoxy-3′-(3-fluorophenyltriazolyl)-3′-deoxy-1-thio-β-D-digalactopyranoside] as the molecule, how does the “retention in MCF10DCIS xenografts” value ([1]; 20 to 60 min post i.v. injection) read?
The value was “significant retention”.

And the “accumulation of radioactivity in normal mammary fat pads” value ([1]; mice, PET/CT)?
Its value is “no accumulation of radioactivity was detectable”.

And the “accumulation or retention of radioactivity in the lungs, muscles, and other organs and tissues” value ([1]; mice, i.v.)?
The value was “extremely low”.

What about the “crossing of the blood-brain barrier (radioactivity in the brain)” value ([1]; mice, i.v.) of the same molecule?
Its value is “does not cross the blood-brain barrier (BBB) in mice either”.

What about the magnitude of catabolism ([1]; mice, bone accumulation at 60 min post injection) of the same molecule?
Its magnitude of catabolism is “negligible”.

What about the “increased binding and accumulation in MCF10DCIS, as compared to normal breast tissue and muscle (Logan graphical analysis)” value ([1]; mice, muscle as reference tissue) of the same molecule?
The value was 2-3 fold.

And the renal clearance ([1]; mice, radioactivity in the bladder)?
Its renal clearance is “more active in mice, as compared with rats”.

And the route of excretion ([1]; tumor-bearing mice, i.v.)?
Its route of excretion is “predominantly via the hepatobiliary route of excretion”.

What about the “blood fast clearance half-time” value [1, 3] of the same molecule?
Its value is ~0.5 min.

What about the “blood slow clearance half-time” value [1, 3] of the same molecule?
The value was ~10.5 min.

And the kidney clearance half-time [1, 4]?
Its kidney clearance half-time is 37 min.

And the liver clearance half-time [1, 4]?
Its liver clearance half-time is ~120 min.

What about the defluorination ([2]; [^18F]-fluoride radioactivity accumulation in the bone) of the same molecule?
The defluorination was “Minimal, but detectable”.

And the “radioactivity levels in all major organs and tissues, including the liver and gall bladder” value ([2]; after 75 min post intravenous administration)?
The value was “very low”.

What about the “primary radiation dose-limiting organs” value ([2]; based on dynamic PET/CT imaging results) of the same molecule?
Its value is “liver and gall bladder; also recorded: liver and gallbladder”.

And the pharmacologic toxicity ([2]; radiotracer doses)?
Its pharmacologic toxicity is “No pharmacologic toxicity can be anticipated or actually observed; also recorded: No acute pharmacologic toxicity at radiotracer doses has been observed”.

What about the “accumulation or retention of radioactivity in the lungs, muscles, and other organs and tissues” value ([2]; rats, i.v.) of the same molecule?
Its value is “extremely low; also recorded: No substantial uptake or retention”.

What about the “crossing of the blood-brain barrier (radioactivity in the brain)” value ([2]; rats, i.v.) of the same molecule?
The value was “does not cross the blood-brain barrier (BBB)”.

What about the route of excretion ([2]; rats, i.v.) of the same molecule?
The route of excretion was “predominantly via the hepatobiliary route of excretion; also recorded: primarily excreted via the hepatobiliary route”.

What about the “blood fast clearance half-time” value [2, 5] of the same molecule?
The value was 0.5 min.

What about the “blood slow clearance half-time” value [2, 5] of the same molecule?
Its value is 7.36 min.

And the kidney clearance half-time [2, 6]?
The kidney clearance half-time was 68 min.

And the liver clearance half-time [2, 6]?
Its liver clearance half-time is 53 min.

What about the renal clearance ([2]; rats, i.v., radioactivity in the bladder) of the same molecule?
The renal clearance was “insignificant”.

What about the magnitude of catabolism ([2]; rats, bone accumulation at 60-75 min post injection) of the same molecule?
Its magnitude of catabolism is “negligible”.

— patent US10799522B2, “Compositions and methods relating to galectin detection” (Wayne State University, priority 2015, dated 2020)
